Laboratory results as given in PMC4279406, “Simultaneous targeting of PI3Kδ and a PI3Kδ-dependent MEK1/2-Erk1/2 pathway for therapy in pediatric B-cell acute lymphoblastic leukemia” (Oncotarget, 2014).

How the values were obtained:
PI3KC2α = target: T1, PI3KC2α (Homo sapiens, UniProt O00443); assay: Kinase Profiler lipid kinase relative activity; format: biochemical; details: X-370 10 μM, compared to DMSO control
T1 construct: purchased Millipore (Kinase Profiler Services, United Kingdom)
Protocol: (§1) Figure 1 Structure of X-370 and its inhibitory activity against lipid kinases (A) Chemical structure of X-370. (B) X-370 docked to the crystal structure of PI3Kδ. The model was generated based on the co-crystal structure of PI3Kδ and ZSTK474 (PDB ID: 2WXL). (C) IC50 of X-370 against PI3Kδ increased along with ATP concentration. […] Data was obtained from Kinase Profiler Services (Millipore, United Kingdom). Briefly, X-370 was solved in DMSO at a concentration of 10 mM, 10-point kinase inhibitory activity was measured over concentrations in a half-log dilution series started at 1000 nM with ATP at a concentration consistent with Km of each isoform of class I PI3K and IC50s were calculated. Relative kinase activity in the presence of 10 μM X-370 compared to DMSO control was measured for the rest of lipid kinases. TEXT PRINTED IN THE PICTURE: (D) X-370: IC50 (nM): 7 (Isoform: PI3Kδ); IC50 (nM): 433 (Isoform: PI3Kα); IC50 (nM): >1,000 (Isoform: PI3Kγ); IC50 (nM): >1,000 (Isoform: PI3Kβ); Relative Activity (%) X-370 (10 μM): 55 (Lipid Kinases: PI3KC2α); Relative Activity (%) X-370 (10 μM): 63 (Lipid Kinases: PI3KC2γ); Relative Activity (%) X-370 (10 μM): 105 (Lipid Kinases: PIP4K2α); Relative Activity (%) X-370 (10 μM): 100 (Lipid Kinases: PIP5K1α); Relative Activity (%) X-370 (10 μM): 103 (Lipid Kinases: PIP5K1γ) DOUBTS OF THE COPYIST ABOUT THIS PICTURE: Panel D, left table (Isoform / IC50): no substance label is printed in this table; assigned to X-370, the only label printed in the panel (head of the right table)
(§2) In vitro kinase profile assays were analyzed by the Kinase Profiler Service (Millipore, United Kingdom) following its guidelines. A GST-tagged human p110δ and regulatory full-length p85 were co-expressed in insect cell Sf9. Recombinant protein was extracted by affinity purification. The PI3K kinase activity was determined in the increasing concentration of ATP and X-370 with PI3-Kinase HTRF™ Assay kit (Millipore) as described previously.

PI3KC2γ = target: T2, PI3KC2γ (Homo sapiens, UniProt O75747); assay: Kinase Profiler lipid kinase relative activity; format: biochemical; details: X-370 10 μM, compared to DMSO control
T2 construct: purchased Millipore (Kinase Profiler Services, United Kingdom)
T2 sequence (O75747 whole entry, species assumed): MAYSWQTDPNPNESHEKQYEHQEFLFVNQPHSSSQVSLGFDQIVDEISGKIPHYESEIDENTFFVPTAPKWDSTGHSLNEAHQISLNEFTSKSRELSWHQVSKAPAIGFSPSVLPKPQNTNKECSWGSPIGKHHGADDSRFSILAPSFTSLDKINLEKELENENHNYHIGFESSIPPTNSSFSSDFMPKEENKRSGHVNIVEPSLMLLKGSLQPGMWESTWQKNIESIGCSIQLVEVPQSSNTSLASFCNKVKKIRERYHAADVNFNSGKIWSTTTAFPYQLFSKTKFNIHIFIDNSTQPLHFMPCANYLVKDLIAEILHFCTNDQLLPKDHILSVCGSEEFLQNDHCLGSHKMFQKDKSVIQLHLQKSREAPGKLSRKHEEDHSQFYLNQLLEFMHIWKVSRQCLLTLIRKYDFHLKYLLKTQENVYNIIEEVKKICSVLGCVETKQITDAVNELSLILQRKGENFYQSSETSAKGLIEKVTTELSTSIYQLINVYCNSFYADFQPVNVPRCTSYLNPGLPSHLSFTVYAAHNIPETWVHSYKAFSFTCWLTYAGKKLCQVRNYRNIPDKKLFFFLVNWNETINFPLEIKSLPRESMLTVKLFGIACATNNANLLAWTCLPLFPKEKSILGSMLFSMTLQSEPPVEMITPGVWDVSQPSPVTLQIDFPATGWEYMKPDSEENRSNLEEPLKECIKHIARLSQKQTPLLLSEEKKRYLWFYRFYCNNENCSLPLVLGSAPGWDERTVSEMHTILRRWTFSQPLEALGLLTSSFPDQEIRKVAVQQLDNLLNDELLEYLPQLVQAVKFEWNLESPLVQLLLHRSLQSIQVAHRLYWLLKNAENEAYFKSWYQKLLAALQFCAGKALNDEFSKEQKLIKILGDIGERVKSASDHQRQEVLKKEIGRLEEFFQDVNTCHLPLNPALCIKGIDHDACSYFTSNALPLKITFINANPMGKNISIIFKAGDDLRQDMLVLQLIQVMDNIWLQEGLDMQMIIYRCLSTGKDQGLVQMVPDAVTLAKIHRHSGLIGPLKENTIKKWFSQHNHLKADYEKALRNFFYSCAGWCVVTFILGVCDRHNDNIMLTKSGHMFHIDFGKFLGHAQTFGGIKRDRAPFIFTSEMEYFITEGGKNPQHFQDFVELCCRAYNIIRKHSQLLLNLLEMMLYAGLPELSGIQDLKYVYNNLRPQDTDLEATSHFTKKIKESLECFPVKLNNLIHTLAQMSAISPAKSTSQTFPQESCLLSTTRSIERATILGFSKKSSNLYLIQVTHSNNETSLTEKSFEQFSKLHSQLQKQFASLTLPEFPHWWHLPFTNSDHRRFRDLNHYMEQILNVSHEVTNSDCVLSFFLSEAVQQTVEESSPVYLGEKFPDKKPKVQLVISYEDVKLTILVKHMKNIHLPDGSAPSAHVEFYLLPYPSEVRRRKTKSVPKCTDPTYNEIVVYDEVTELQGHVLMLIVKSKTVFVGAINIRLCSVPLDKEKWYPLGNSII
Protocol: as §1, §2

PIP4K2α = target: T3, PIP4K2α (Homo sapiens, UniProt P48426); assay: Kinase Profiler lipid kinase relative activity; format: biochemical; details: X-370 10 μM, compared to DMSO control
T3 construct: purchased Millipore (Kinase Profiler Services, United Kingdom)
T3 sequence (P48426 whole entry): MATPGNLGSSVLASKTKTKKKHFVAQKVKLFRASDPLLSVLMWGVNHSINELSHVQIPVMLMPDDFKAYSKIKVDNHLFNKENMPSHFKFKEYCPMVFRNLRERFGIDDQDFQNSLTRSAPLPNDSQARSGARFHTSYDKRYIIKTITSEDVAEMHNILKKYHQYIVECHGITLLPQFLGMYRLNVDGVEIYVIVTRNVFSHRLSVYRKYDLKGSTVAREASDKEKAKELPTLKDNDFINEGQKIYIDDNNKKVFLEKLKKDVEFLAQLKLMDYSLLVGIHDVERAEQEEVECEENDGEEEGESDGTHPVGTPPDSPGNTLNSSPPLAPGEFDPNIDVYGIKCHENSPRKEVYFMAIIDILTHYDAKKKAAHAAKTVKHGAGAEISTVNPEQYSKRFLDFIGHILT
Protocol: as §1, §2

PIP5K1α = target: T4, PIP5K1α (Homo sapiens, UniProt Q99755); assay: Kinase Profiler lipid kinase relative activity; format: biochemical; details: X-370 10 μM, compared to DMSO control
T4 construct: purchased Millipore (Kinase Profiler Services, United Kingdom)
T4 sequence (Q99755 whole entry, species assumed): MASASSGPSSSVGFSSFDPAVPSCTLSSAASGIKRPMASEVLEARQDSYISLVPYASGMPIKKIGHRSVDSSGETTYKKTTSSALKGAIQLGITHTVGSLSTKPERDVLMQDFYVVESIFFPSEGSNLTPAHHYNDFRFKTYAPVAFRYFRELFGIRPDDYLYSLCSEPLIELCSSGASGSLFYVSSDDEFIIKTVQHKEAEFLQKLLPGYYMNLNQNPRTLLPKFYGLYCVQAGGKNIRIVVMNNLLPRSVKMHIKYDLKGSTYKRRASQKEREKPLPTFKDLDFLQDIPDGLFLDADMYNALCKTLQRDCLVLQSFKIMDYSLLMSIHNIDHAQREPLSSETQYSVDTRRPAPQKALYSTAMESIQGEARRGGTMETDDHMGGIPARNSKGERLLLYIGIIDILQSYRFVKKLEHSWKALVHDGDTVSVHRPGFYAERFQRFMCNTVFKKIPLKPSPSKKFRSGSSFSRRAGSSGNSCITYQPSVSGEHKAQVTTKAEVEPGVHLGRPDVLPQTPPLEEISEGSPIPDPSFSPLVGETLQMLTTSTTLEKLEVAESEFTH
Protocol: as §1, §2

PIP5K1γ = target: T5, PIP5K1γ (Homo sapiens, UniProt O60331); assay: Kinase Profiler lipid kinase relative activity; format: biochemical; details: X-370 10 μM, compared to DMSO control
T5 construct: purchased Millipore (Kinase Profiler Services, United Kingdom)
T5 sequence (O60331 whole entry, species assumed): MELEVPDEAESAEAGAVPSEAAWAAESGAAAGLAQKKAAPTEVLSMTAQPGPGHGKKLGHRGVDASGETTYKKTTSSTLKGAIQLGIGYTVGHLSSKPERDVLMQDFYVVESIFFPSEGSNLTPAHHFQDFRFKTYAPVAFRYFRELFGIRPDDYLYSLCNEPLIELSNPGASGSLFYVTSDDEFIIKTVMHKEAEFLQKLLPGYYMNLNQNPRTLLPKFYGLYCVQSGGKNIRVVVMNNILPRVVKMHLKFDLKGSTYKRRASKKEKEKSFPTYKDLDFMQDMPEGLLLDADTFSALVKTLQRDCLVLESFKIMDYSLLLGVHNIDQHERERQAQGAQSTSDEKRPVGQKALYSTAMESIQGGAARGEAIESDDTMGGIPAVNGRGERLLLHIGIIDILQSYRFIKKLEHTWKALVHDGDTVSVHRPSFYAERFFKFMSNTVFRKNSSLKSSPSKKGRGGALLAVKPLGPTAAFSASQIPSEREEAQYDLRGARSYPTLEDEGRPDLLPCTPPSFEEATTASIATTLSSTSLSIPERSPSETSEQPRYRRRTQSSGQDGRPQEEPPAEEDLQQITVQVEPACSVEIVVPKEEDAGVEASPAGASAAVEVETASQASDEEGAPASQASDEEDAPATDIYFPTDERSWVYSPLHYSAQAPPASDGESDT
Protocol: as §1, §2

Raji cells = assay: Signaling by Western blot; format: cell-based, human; details: Raji
Protocol: (§3) Raji and SU-DHL-6 cells were treated with X-370 for 1 h (left panel) or treated with 0.5 μM X-370 for indicated times (middle panel). Right panel, Raji cells were incubated in fresh medium following treatment with 0.5 μM X-370 for 1 h. Indicated proteins were detected. (B) Raji-R (the rituximab-resistant derivatives of Raji cells) cells were resistant to X-370. The activity of X-370 on the proliferation of Raji parent and Raji-R cells was determined by CCK-8 assay as described in the methods section. (C) X-370 blocked phosphorylation of Akt but not Erk1/2 in Raji-R cells. Raji-R cells were treated with X-370 for 1h and indicated proteins were detected. Data shown are representative from three independent experiments.
Figure 5 Inhibition of Erk1/2 phosphorylation by X-370 contributed to its antiproliferative activity (A-C) X-370 inhibited Erk1/2 phosphorylation via PI3K-PDK1-MEK1/2 cascade but not the PI3K-Gab1 positive feedback loop. (A) Raji and SU-DHL-6 cells were exposed to 1 μM X370 for 3 h and protein fraction from cellular membrane was separated using Native Membrane Protein Extraction Kit and probed. WCL: whole cell lysate. (B) Inhibition of PDK1 or MEK1/2 abrogated Erk1/2 phosphorylation. Cells were treated with pharmacological inhibitors of Raf (AZ 628, PLX4032), MEK1/2 (AZD6244), p90RSK (BI-D1870), PI3Kδ (X-370), PDK1 (BX-912), Akt (MK-2206), mTOR (AZD8055) or mTORC1 (Rapamycin) respectively and indicated proteins were detected. (C) X-370 disrupted the association between PDK1 and MEK1/2. Raji cells were treated with 1 μM X370 for 1 h and cell lysates were immunoprecipitated with anti-PDK1 antibody and indicated proteins were detected. WCL: whole cell lysate. (D-F) Inhibition of Erk1/2 phosphorylation was required for the anti-proliferative activity of X-370. (D) Raji cells ectopically expressing a constitutively activated phospho-mimic MEK1 mutant (MEK1 […] or MEK DD) were incubated with X-370 or AZD6244 for 1 h and then subjected to Western blot. (E) Raji and Raji MEK DD cells were treated with X-370 for 72 h and cell proliferation was detected by CCK-8 assay. (F) Raji MEK DD cells were treated with X-370 and AZD6244 and cell proliferation was detected by CCK-8 assay. Data were show as mean ± SD of three independent experiments. *: p < 0.05 determined by t-tests at each data point. […]
Cells were treated as indicated conditions and then subjected to lysate to perform standard Western blot as described previously1. Briefly, whole-cell lysates and SDS-loading buffer diluted cell fractions were analyzed on SDS-PAGE gels. Transfer to nitrocellulose membranes, nonfat milk blocking, probing with indicated primary antibodies and the corresponding HRP-conjugated second antibodies.
Chemiluminescence were performed and captured using ImageQuant LAS 4000 (GE healthcare Life Sciences, Piscataway, NJ, USA) and band intensity was measure both with ImageQuant™ TL (GE Healthcare Life Sciences) 2. […]
(also on this page, place not known: PI3Kδ -dependent MEK1/2 - B -cell previously 1. whole -cell SDS -loading SDS -PAGE HRP -conjugated (G E A B Val828 Trp760 Thr750 Met752 Tyr813 affinity pocket specificity pocket hinge Glu826 CAL-101 X-370) […]
(1 picture or pasted object on this page, not shown here)

Raji-R cells = assay: Proliferation of rituximab-resistant Raji-R cells (CCK-8); format: cell-based, human
Protocol: as §3
Cell viability was assessed using Cell Counting Kit (CCK-8, Dojindo, Japan) following the manufacturer's protocol and OD values were measured with a Spectramax M5 plate reader (Molecular Devices, Sunnyvale, CA)[45].

T1 sequence (O00443 whole entry, species assumed): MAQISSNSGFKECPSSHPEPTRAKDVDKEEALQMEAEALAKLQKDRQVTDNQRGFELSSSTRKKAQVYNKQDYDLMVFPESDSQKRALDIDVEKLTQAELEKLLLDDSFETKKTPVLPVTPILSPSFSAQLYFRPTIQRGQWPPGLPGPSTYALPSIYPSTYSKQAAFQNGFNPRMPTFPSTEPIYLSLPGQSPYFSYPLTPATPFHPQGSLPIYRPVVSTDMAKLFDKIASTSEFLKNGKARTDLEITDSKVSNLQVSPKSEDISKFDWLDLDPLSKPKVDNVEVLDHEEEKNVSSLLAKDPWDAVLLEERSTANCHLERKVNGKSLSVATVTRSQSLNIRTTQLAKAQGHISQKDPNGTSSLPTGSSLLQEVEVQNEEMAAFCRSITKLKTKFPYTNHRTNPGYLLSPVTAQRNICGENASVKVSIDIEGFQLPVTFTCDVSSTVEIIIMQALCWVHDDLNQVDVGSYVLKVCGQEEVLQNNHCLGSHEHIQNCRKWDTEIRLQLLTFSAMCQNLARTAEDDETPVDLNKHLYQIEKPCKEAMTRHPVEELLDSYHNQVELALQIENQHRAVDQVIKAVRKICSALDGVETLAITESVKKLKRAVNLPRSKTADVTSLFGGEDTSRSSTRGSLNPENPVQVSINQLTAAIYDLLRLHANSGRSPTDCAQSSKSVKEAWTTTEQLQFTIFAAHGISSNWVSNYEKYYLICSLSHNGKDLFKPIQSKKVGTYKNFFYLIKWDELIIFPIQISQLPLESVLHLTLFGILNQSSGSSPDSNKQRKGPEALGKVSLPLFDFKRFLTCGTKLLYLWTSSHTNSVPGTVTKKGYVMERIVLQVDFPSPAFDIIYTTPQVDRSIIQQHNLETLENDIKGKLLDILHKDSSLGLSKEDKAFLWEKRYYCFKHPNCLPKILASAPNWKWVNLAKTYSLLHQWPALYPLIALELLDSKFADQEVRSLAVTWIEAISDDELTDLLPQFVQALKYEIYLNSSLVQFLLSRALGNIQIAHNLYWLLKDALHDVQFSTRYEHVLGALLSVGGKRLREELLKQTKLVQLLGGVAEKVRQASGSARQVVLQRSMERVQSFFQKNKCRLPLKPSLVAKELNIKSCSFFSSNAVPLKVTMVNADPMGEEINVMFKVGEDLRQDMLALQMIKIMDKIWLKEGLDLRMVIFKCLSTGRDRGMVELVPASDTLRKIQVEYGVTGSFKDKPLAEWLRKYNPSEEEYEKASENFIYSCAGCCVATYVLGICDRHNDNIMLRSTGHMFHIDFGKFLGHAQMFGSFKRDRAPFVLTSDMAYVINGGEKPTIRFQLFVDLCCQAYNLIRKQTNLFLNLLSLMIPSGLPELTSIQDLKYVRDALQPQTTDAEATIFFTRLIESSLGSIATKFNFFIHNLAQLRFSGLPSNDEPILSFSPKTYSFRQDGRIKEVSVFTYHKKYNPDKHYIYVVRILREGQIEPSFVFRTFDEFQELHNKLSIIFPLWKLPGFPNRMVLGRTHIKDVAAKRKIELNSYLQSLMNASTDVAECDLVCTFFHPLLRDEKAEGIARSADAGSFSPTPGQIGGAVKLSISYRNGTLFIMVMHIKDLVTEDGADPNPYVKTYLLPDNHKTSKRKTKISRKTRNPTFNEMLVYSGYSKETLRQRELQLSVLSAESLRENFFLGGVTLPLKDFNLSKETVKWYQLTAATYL

## O=C(N1CCCC1)N1CCC(n2cnc3c(-n4c(C(F)F)nc5ccccc54)nc(N4CCOCC4)nc32)CC1 [X-370]
PI3KC2α
  activity at 10 µM: 55%
PI3KC2γ
  activity at 10 µM: 63%
PIP4K2α
  activity at 10 µM: 105%
PIP5K1α
  activity at 10 µM: 100%
PIP5K1γ
  activity at 10 µM: 103%
Raji cells
  phosphorylation of Erk1/2 at T202/Y204: decreased in lockstep with inactivation of Akt
Raji cells; 1 μM, 1 h
  phosphorylation of MEK1/2 at Ser217/221: inhibited
Raji cells; 1 μM, 3 h, membrane fraction
  phosphorylation of Akt at the membrane: abolished
Raji cells; 1 h
  concentration as low as which Akt phosphorylation was significantly reduced: 5 nM
Raji cells; 0.5 μM 1 h then drug-free medium, restoration after 15 minutes to 1 h
  reversibility of action on PI3K and Erk1/2 after compound removal: rapidly reversible
Raji-R cells
  sensitivity of proliferation compared to parental Raji cells: resistant
